# Patent US20060062859A1, “Composition and method to optimize and customize nutritional supplement formulations by measuring genetic and metabolomic contributing factors to disease diagnosis, stratification, prognosis, metabolism, and therapeutic outcomes” (priority 2004, published 2006)
# Where no end group is shown, it is not given here.
# Assays:
# synaptosomal dopamine = conditions: cited from earlier work
# [1] = direct microinjection; cited from earlier work
# [2] = repeated stress; cited from earlier work
# [3] = cited from earlier work
# [4] = test system: sweet and bitter receptors on the tongue; conditions: in vivo; cited from earlier work
# [5] = VTA / midbrain dopamine neurons; cited from earlier work
# [6] = double-blind placebo controlled; cited from earlier work
# [7] = chronic treatment; cited from earlier work
# [8] = cited from earlier work; for OA pain / joint function: people with OA
# insulin receptor (IR) = biological target: T1, insulin receptor (IR) (Mus musculus, UniProt P15208); conditions: cited from earlier work
# T1 construct: endogenous in cells; study cited from the literature
# [9] = Enkephalinase inhibitors in mice: brain enkephalins and alcohol preference; assay type: in vivo; conditions: for alcohol preference: acceptance and 14 day preference test; for brain enkephalins: d-phenylalanine 500 mg/kg/day 18 days, metabolite 25 micrograms i.c.v.
# [10] = test system: brain dopamine and serotonin flux; conditions: cited from earlier work
# [11] = in vivo; cited from earlier work
# [12] = Compliance with Trexan after rapid detoxification of methadone patients; assay type: in vivo, human; conditions: P<0.0001
# Experimental: Over the last decade, a new rapid method to detoxify either methadone or heroin addicts utilizing TrexanR sparked interest in many treatment centers throughout the United States, Canada, as well as many countries on a worldwide basis. […] It may also be interesting too further test this hypothesis with the sublingual combination of the partial opiate mu receptor agonist buprenorphrine. The ingredients tested included DL-phenylalanine (2760 mg/day), L-Glutamine (150 mg/day), chromium picolinate (360 micrograms/day), pyridoxal-5-phosphate (30 mg/day). • Most recently a study was performed by Julia Ross best selling author of The Diet Cure (Viking Press USA, 1999; Penguin UK, Au, and USA, 2000), in an outpatient clinic in Mill Valley, Calif. involving amino-acid therapy and enkephalinase inhibition based on Blum's work. […]
# [13] = cited from earlier work; remark: listed apart in the source
# D2 receptors in the Nacc = biological target: T2, D2 receptors in the Nacc (Rattus norvegicus, UniProt P61169); conditions: bilateral, nmol/side; cited from earlier work
# T2 construct: from tissue; host or cells: nucleus accumbens in vivo; study cited from the literature
# release of serotonin = conditions: long lasting and dose dependent; cited from earlier work
# T1 sequence (P15208 28-748 limits assumed): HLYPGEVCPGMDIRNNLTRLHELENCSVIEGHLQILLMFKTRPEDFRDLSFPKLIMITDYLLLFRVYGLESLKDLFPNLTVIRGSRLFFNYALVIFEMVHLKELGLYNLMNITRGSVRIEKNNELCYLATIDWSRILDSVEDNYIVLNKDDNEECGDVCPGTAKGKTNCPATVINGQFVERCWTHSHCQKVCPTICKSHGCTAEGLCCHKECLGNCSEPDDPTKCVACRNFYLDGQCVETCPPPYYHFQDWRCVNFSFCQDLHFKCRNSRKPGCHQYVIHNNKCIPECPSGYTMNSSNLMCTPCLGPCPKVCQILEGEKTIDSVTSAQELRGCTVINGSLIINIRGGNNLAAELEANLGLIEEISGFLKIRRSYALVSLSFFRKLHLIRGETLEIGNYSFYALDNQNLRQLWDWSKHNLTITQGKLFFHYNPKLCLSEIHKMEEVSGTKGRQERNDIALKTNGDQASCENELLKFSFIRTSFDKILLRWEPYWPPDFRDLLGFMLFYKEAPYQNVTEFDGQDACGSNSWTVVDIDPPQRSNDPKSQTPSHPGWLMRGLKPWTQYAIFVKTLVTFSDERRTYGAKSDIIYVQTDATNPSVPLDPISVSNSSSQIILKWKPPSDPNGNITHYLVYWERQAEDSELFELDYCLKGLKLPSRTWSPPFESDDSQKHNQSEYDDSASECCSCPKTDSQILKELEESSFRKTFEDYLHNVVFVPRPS
# T1 sequence (P15208 753-1372 limits assumed): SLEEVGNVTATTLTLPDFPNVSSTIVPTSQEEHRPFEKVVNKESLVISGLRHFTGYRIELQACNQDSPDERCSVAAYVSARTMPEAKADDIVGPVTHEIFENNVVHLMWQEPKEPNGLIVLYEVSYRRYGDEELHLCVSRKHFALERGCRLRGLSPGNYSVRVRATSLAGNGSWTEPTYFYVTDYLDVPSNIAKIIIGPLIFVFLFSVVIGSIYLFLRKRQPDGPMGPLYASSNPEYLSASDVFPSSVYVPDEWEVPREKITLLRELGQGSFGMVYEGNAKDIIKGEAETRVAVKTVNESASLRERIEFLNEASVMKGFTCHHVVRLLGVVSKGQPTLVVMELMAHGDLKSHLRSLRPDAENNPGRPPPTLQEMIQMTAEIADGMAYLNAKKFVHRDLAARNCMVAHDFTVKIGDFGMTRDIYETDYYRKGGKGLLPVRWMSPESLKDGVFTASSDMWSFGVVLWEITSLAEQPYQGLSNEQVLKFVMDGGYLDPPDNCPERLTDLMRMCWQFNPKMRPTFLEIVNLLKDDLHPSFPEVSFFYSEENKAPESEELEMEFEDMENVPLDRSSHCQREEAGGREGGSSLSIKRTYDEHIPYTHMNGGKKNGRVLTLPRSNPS
# T2 sequence (P61169 whole entry): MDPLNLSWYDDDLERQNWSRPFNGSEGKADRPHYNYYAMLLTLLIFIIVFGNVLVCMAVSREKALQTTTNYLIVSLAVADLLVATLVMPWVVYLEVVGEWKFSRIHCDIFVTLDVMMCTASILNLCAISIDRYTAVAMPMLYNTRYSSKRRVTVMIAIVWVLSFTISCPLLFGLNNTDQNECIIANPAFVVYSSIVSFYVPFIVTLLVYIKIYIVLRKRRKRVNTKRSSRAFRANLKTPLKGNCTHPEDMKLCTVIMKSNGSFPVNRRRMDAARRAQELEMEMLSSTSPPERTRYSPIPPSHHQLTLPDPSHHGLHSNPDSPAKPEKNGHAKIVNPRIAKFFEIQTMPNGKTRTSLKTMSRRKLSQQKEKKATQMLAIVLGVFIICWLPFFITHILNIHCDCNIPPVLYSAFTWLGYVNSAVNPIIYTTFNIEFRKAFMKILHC
compound,measurement,setting,value
CN1[C@@H]2CC[C@H]1C[C@@H](OC(c1ccccc1)c1ccccc1)C2 [Cogentin],release of dopamine formed from 14C-phenylalanine,synaptosomal dopamine,increased
CCCN1CCc2cccc3c2[C@H]1Cc1ccc(O)c(O)c1-3 [n-propylnor-apomorphine],symptoms after withdrawal of opiates,[1],significantly suppresses
CN(C)CCCN1c2ccccc2CCc2ccc(Cl)cc21 [clomipramine],development of hyperalgesia,[2],blocks
CNCCC(Oc1ccc(C(F)(F)F)cc1)c1ccccc1 (centres unmarked) [fluoxitine],development of hyperalgesia,[2],blocks
same,ingestion of saccharin solutions,[3]; normal rats,suppresses
gurmarin,sweet taste of glucose and sucrose,[4],block
"substance P (RPKPQQFFGLM; ends and bridges not checked; UniProt P20366 58-68, looked up) [SP, tachykinin neuropeptide, substance P]",tonic pain / analgesia in the formalin test,[5],inhibit tonic pain
NC(Cc1ccccc1)C(=O)O (racemic) [dl-phenylalanine],psychosocial stress as measured by SCL,[6],reduces stress
CN1CC[C@]23c4c5ccc(O)c4O[C@H]2[C@@H](O)C=C[C@H]3[C@H]1C5 [morphine],food intake,[7],decreased food intake
same,tonic pain / analgesia in the formalin test,[5],induces analgesia
"C[S+](CC[C@H](N)C(=O)[O-])C[C@H]1O[C@@H](n2cnc3c(N)ncnc32)[C@H](O)[C@@H]1O (stereo partly drawn) [SAM-e, S-adenosyl-L-methionine]",OA pain / joint function,[8],equal to NSAIDs
CCN[C@@H](C)Cc1cccc(C(F)(F)F)c1 [d-fenfluramine],consumption of a sucrose solution,[3]; non-deprived rats,reduced
O=C(OC[C@H]1O[C@@H](OC(=O)c2cc(O)c(O)c(OC(=O)c3cc(O)c(O)c(O)c3)c2)[C@H](OC(=O)c2cc(O)c(O)c(OC(=O)c3cc(O)c(O)c(O)c3)c2)[C@@H](OC(=O)c2cc(O)c(O)c(OC(=O)c3cc(O)c(O)c(O)c3)c2)[C@@H]1OC(=O)c1cc(O)c(O)c(OC(=O)c2cc(O)c(O)c(O)c2)c1)c1cc(O)c(O)c(OC(=O)c2cc(O)c(O)c(O)c2)c1 [Tannic Acid],expression of key genes for adipogenesis (PPAR-gamma 2; c-fos; c-jun and c-myc),insulin receptor (IR),inhibit
same,phosphorylation of the insulin receptor (IR),insulin receptor (IR),induces phosphorylation
same,translocation of the glucose transporter (GLUT 4),insulin receptor (IR),translocation
CC(N)Cc1ccccc1 (centres unmarked) [Amphetamine],release of dopamine formed from 14C-phenylalanine,synaptosomal dopamine,increased
N[C@H](Cc1ccccc1)C(=O)O [d-phenylalanine],alcohol preference,[9],significantly reduced
same,brain enkephalins,[9],brain changes of the enkephalins
N[C@H]1C(O)O[C@H](CO)[C@@H](O)[C@@H]1O (some centres unmarked) [glucosamine],progression of the disease,"[8]; knee OA, three years","slowed, if not stopped"
CC(C)CC(N(C)C)C1(c2ccc(Cl)cc2)CCC1 (centres unmarked) [Sibutramine],serotonin and dopamine concentrations in striatal and hypothalamic brain regions,[10]; higher doses,increased
same,serotonin and dopamine concentrations in dialysates,[10]; low doses,no effect
"O=S(=O)([O-])[O-].[O]=[V+2] [vanadyl, Vanadyl sulfate]",blood sugar levels,[11],very effective in normalizing blood sugar levels
O=C1CC[C@@]2(O)[C@H]3Cc4ccc(O)c5c4[C@@]2(CCN3CC2CC2)[C@H]1O5 [Trexan],average number of days of compliance,[12],37 days
[Ca+2] [calcium],lower body weight per 300 mg increment of regular intake,[13]; adults,2.5 to 3.0 kg
same,weight loss compared to the placebo group,[13]; approximately 4 years of observation,significant weight loss
same,less body fat per 300 mg increment of regular intake,[13]; children,about 1 kg
same,reduction of prevalence of overweight and obesity (estimate),[13]; increased intake,60-80%
CHONDROITIN SULFATE,OA pain / joint function,[8],significant improvement in pain and inflammation and improved joint function
CCN1CCC[C@H]1CNC(=O)c1c(O)c(Cl)cc(Cl)c1OC [raclopride],persistent phase of formalin-induced nociception,D2 receptors in the Nacc,blocked
CCn1cc(C(=O)O)c(=O)c2ccc(Cc3ccccc3)nc21 [Amfoelic acid],release of dopamine formed from 14C-phenylalanine,synaptosomal dopamine,net release
"N[C@@H](Cc1c[nH]c2ccc(O)cc12)C(=O)O [5-HTP, 5-hydroxy-l-tryptophan]",5-HT in dialysates,release of serotonin,immediate increase
"O=C(O)CCc1ccccc1 [hydrocunnamic acid, reference compound]",alcohol preference,[9],significantly reduced
same,brain enkephalins,[9],brain changes of the enkephalins
Oc1cc2c(cc1O)C(c1ccccc1)CNCC2 (centres unmarked) [SKF 38393],persistent phase of formalin-induced nociception,D2 receptors in the Nacc,without effect
N[C@@H](Cc1c[nH]c2ccccc12)C(=O)O [tryptophan],development of hyperalgesia,[2],blocks
